Measured values taken from patent publication US20250186734A1, “METHODS AND SYSTEMS FOR AUTOMATED NEUR[…] TO EXTEND RELIEF OF TREATMENT-RESISTANT MENTAL DISORDERS” (UNIVERSITY OF PITTSBURGH-OF THE COMMONWEALTH SYSTEM OF …, priority 2022, published 2025).

Legend:
[1] = tested on: patients with treatment-resistant depression; assay: Randomized controlled trial of ketamine infusion and automated self-association training (ASAT/NT): MADRS depression severity; type: in vivo, human
Excerpt: Participants. To achieve the initial recruitment target of n=150 patients, the study enrolled and randomized n=154 patients, continuing enrollment until a final sample was acquired that included the full target of n=150 patients who completed, at a minimum, (1) an infusion day, (2) a 24-hour assessment visit, and (3) ≥75% of intended Cognitive Training (active or sham NT) visits. All n=154 randomized patients were included in the reported intent-to-treat analyses. In particular, 154 adult (age 18-60) patients reporting moderate-to-severe levels of depression [Montgomery-Asberg Depression Rating Scale (MADRS; [Montgomery S A, Asberg M: A new depression scale designed to be sensitive to change. Br J Psychiatry. 1979; 134:382-9]) score 25], lower-than-normative self-reported self-esteem [i.e., scoring outside of 1SD from the normative mean on the Cognitive Triad Inventory [Beckham E E, Leber W R, Watkins J T, Boyer J L, Cook J B: Development of an instrument to measure Beck's cognitive triad: the Cognitive Triad Inventory. J Consult Clin Psychol. 1986; 54(4):566-7]“self” subscale [Anderson K W, Skidmore J R: Empirical analysis of factors in depressive cognition: the cognitive triad inventory. J Clin Psychol. 1995; 51(5):603-9; Possel P: Cognitive Triad Inventory (CTI): psychometric properties and factor structure of the German translation. J Behav Ther Exp Psychiatry. 2009; 40(2):240-7] and/or the Rosenberg Self-Esteem Scale], and at least one failed, adequate trial of an FDA-approved antidepressant medication in the current depressive episode (per Antidepressant Treatment Response Questionnaire; ATRQ [Chandler G M, losifescu DV, Pollack M H, Targum S D, Fava M: RESEARCH: Validation of the Massachusetts General Hospital Antidepressant Treatment History Questionnaire (ATRQ). CNS Neurosci Ther. 2010; 16(5):322-5]), were recruited and randomized. Any existing depression treatment regimens were required to be stably maintained beginning 4 weeks prior to screening and throughout the trial. See FIG. 10, Table S1 and Examples 6-8 below for sample characteristics.
Assessment Timeline. An experienced, Master's level clinical rater (CRS) administered the MADRS, the study's pre-specified primary endpoint throughout the acute (30-day) study period, to assess overall depression severity. The measure was repeated at screening (used for eligibility determinations only), pre-infusion baseline (infusion −1 hour; the clinical rater then left and was not present during any intervention procedure), infusion +24 hours (prior to the first session of active/sham NT), +5, +12, +21, and +30 days. […] This study also contemplates including and analyzing neurocognitive (e.g., neuroimaging; performance-based) assessments of ketamine's impact. Adequacy of both patient and rater blinding, for both infusion and NT allocation, was assessed by self-report using a 0-100 sliding scale (0=definitely placebo/sham; 50=1 don't know; 100=definitely ketamine/active) at infusion+30 days.
Interventions. A randomization table using permuted blocks of 3 or 6, stratified by (1) biological sex at birth and (2) modest vs. severe treatment resistance (severe=≥3 FDA-approved antidepressant trials in episode, per ATRQ), was generated by an independent statistical consultant at study start and maintained by the study pharmacist, who, at the point of randomization, conveyed the NT allocation (but not the infusion allocation) to a single study staff member who was assigned to that patient. This single staff member was tasked with opening the correct computer program to deliver the NT sessions to that patient, but was not involved in, nor present for, any outcome ratings. Blinding for all other study personnel was maintained until after the final patient's Day 30 assessment was complete.
Infusion. Participants were randomized 2:1 to ketamine (0.5 mg/kg over 40 min) or saline (50 ml 0.9% Sodium Chloride over 40 min) infusion. […]

[2] = tested on: patients with treatment-resistant depression; assay: Adverse event monitoring after infusion in the trial; type: in vivo, human; conditions: 0.5 mg/kg over 40 min infusion, monitoring for 4 hours post-infusion
Procedure: Infusion. Participants were randomized 2:1 to ketamine (0.5 mg/kg over 40 min) or saline (50 ml 0.9% Sodium Chloride over 40 min) infusion. All infusions were administered by blinded, licensed nurses in a medical hospital setting with a linked ACLS-certified team, with blinded study physician (RHH) oversight and safety/adverse event monitoring sustained for 4-hours post-infusion.

depressed patients = conditions: cited from earlier work
[3] = 24 hours post-infusion, ketamine vs saline

With `CNC1(c2ccccc2Cl)CCCCC1=O` (centres unmarked) [ketamine] as the molecule, how does the “remitter rate (MADRS≤9)” value ([1]; 24 hours post-infusion) read?
The value was 28%.

What about the “responder rate (≥50% decrease from pre-infusion MADRS baseline)” value ([1]; 24 hours post-infusion) of the same molecule?
The value was 52%.

What about the NNT for remission [1, 3] of the same molecule?
Its NNT for remission is 4.2.

And the “number-needed-to-treat (NNT) for response” value [1, 3]?
The value was 3.7.

And the “MADRS total depression score, group by time interaction, standardized β” value ([1]; infusion phase, pre-infusion to 24 hours post-infusion, ketamine 0.5 mg/kg over 40 min vs saline)?
The value was −1.30.

What about the “duration of the rapid antidepressant effect of a single infusion extended by Cognitive Training” value ([1]; single ketamine infusion followed by 8 sessions of Cognitive Training) of the same molecule?
The value was “at least 30 days”.

And the adverse events [2]?
Its adverse events is “mild-to-moderate, time-limited”.

What about the “response rates in depressed patients” value (depressed patients; as early as 2 hours post-ketamine) of the same molecule?
The value was 55-80%.

And the “time within which symptoms are dramatically reduced” value (depressed patients; intravenous ketamine)?
The value was 2 to 24 h.

What about the “duration of improvements provided by a single infusion in isolation” value (depressed patients; prior published work) of the same molecule?
Its value is 1-2 week.

What about the “time after which effects of a single infusion dissipate” value (depressed patients; single infusion) of the same molecule?
Its value is 3 to 7 days.
